Experimental data as given in article PMC3156385 (Chemical research in toxicology, 2011).
Where two headings read alike, the source gives them in different places.

Legend:
P450 1B1 [1] = target: T1, P450 1B1 (Homo sapiens, UniProt Q16678); assay: Inhibition of P450 1B1-dependent EROD activity; assay type: biochemical
T1 sequence (Q16678 1-543): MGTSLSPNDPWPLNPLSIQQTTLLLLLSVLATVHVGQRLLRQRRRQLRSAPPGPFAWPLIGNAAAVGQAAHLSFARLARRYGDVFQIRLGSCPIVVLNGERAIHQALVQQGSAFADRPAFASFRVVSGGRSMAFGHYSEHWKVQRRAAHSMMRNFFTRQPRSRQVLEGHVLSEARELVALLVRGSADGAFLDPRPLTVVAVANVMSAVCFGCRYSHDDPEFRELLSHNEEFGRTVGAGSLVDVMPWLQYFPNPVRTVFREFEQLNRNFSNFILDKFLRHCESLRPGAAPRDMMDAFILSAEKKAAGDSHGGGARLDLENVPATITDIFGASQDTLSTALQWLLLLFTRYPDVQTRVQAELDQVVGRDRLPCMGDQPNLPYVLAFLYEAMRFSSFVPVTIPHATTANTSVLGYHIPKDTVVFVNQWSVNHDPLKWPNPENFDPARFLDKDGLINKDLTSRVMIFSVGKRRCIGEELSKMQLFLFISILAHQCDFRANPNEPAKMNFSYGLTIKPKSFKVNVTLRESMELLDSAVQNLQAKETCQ

P450 2A13 [2] = target: T2, P450 2A13 (Homo sapiens, UniProt Q16696); assay type: biochemical
T2 sequence (Q16696 1-494): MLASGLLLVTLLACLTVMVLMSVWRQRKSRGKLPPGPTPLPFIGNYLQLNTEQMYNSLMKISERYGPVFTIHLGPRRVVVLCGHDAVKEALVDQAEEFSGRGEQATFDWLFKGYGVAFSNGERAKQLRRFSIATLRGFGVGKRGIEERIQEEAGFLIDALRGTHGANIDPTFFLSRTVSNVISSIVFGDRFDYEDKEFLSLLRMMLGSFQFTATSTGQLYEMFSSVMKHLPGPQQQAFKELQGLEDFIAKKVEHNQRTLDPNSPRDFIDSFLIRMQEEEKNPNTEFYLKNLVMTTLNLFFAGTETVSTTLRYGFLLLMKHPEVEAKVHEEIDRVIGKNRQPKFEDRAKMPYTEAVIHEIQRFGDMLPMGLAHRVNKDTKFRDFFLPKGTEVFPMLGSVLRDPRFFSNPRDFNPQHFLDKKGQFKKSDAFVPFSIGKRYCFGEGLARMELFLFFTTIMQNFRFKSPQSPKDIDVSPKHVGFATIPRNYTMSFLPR

P450 2A6 [3] = target: T3, P450 2A6 (Homo sapiens, UniProt P11509); assay: Inhibition of P450 2A6-dependent coumarin 7-hydroxylation; assay type: biochemical
T3 sequence (P11509 1-494): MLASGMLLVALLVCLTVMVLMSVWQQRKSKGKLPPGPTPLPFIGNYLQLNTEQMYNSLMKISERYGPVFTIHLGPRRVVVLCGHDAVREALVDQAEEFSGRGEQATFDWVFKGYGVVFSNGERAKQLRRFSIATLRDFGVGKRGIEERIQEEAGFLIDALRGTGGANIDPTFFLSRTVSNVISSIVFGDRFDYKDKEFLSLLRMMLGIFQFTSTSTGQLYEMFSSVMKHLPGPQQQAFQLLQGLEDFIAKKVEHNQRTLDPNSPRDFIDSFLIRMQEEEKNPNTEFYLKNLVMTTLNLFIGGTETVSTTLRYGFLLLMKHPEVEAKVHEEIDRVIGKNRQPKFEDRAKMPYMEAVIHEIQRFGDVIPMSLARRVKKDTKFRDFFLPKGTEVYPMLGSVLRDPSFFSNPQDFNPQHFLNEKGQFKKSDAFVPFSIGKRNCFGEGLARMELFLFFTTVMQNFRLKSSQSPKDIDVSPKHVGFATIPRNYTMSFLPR

P450 1B1 [4] = target: T1, P450 1B1; assay: Spectral binding titration with purified recombinant P450 1B1; conditions: for ΔAmax/Ks / ΔAmax: Reverse Type I binding, 1 µM P450; for ΔAmax: means ± SE
P450 2A6 [5] = target: T3, P450 2A6; assay: Spectral binding titration with purified recombinant P450 2A6; conditions: for ΔAmax/Ks / ΔAmax: Type I binding, 1 µM P450; for ΔAmax: means ± SE
P450 2A13 [6] = target: T2, P450 2A13; assay: Inhibition of P450 2A13-dependent coumarin 7-hydroxylation; assay type: biochemical
P450 2A6 [7] = target: T3, P450 2A6; assay type: biochemical
P450 1A1 = target: T4, P450 1A1 (Homo sapiens, UniProt P04798); assay: Spectral binding titration with purified recombinant P450 1A1; conditions: for ΔAmax/Ks / ΔAmax: Reverse Type I binding, 1 µM P450; for ΔAmax: means ± SE
T4 sequence (P04798 1-512): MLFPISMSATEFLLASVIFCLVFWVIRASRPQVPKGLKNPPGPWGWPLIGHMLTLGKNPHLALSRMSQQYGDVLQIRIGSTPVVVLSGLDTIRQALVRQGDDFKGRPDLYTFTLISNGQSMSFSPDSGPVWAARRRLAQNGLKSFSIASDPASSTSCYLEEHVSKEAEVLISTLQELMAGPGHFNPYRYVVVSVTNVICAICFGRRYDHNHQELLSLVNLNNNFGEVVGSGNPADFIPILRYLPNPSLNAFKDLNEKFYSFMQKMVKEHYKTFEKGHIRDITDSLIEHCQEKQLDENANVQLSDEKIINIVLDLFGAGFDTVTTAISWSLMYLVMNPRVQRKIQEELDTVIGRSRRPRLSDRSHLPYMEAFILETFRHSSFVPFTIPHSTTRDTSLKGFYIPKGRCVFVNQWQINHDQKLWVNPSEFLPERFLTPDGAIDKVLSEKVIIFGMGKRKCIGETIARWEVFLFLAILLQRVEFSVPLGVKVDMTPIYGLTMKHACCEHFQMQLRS

P450 2A13 [8] = assay: Spectral binding titration with purified recombinant P450 2A13; conditions: Ks P450 2A6 / Ks P450 2A13
P450 2A13 [9] = target: T2, P450 2A13; assay: as above; conditions: for ΔAmax/Ks / ΔAmax: Type I binding; for ΔAmax: means ± SE
[10] = preincubation 15 min with NADPH vs without

Structure (SMILES) | IC50 (P450 2A6 [3]) [nM] | Kd (P450 1B1 [4]) [nM] | ΔAmax/Ks (P450 1B1 [4]) | ΔAmax (P450 1B1 [4]) | Kd (P450 2A6 [5]) [nM] | ΔAmax/Ks (P450 2A6 [5]) | ΔAmax (P450 2A6 [5]) | IC50 (P450 2A13 [6]) [nM] | Kd (P450 1A1) [nM] | ΔAmax/Ks (P450 1A1) | ΔAmax (P450 1A1) | Ks of P450 2A13 lower than with P450 2A6 (P450 2A13 [8]) [fold] | Kd (P450 2A13 [9]) [nM] | ΔAmax/Ks (P450 2A13 [9]; 1 µM P450) | ΔAmax (P450 2A13 [9]; 1 µM P450) | further results
N#C[Se]Cc1ccccc1 [BSC, benzyl selenocyanate] | 4300 ± 360 | 5300 ± 960 | 3.60 × 10^−3 | 19 ± 0.11 × 10^−3 | 2000 ± 140 | 32.00 × 10^−3 | 66 ± 0.93 × 10^−3 | 1200 ± 190 | 23000 ± 4100 | 0.61 × 10^−3 | 14 ± 1.0 × 10^−3 | 10 | 200 ± 21 | 470.00 × 10^−3 | 94 ± 1.5 × 10^−3 | IC50 (P450 1B1 [1]): 270 ± 31 nM; effect of preincubation on inhibition potency of coumarin 7-hydroxylation (P450 2A13 [2]): did not change the inhibition potencies; type of binding spectra (P450 2A6 [5]; difference spectra): Type I; effect of preincubation on inhibition potency of coumarin 7-hydroxylation (P450 2A6 [7]): did not change the inhibition potencies; type of binding spectra (P450 1A1; difference spectra): Reverse Type I; type of binding spectra (P450 2A13 [9]; difference spectra): Type I
N#C[Se]Cc1cccc(C[Se]C#N)c1 [m-XSC, 1,3-phenylenebis(methylene)selenocyanate] | 2400 ± 190 | 5700 ± 1000 | 3.70 × 10^−3 | 21 ± 1.0 × 10^−3 | 5700 ± 520 | 6.50 × 10^−3 | 37 ± 0.88 × 10^−3 | 220 ± 31 | 30000 ± 4500 | 0.60 × 10^−3 | 18 ± 1.2 × 10^−3 | 28 | 200 ± 15 | 395.00 × 10^−3 | 79 ± 0.91 × 10^−3 | metabolism-dependent inhibition of P450 1B1 (EROD) (P450 1B1 [1]; m-XSC 0.033, 0.083, 0.33 µM, preincubation 2 and 4 min with NADPH): no metabolism-dependent inhibition; effect of preincubation on inhibition potency of coumarin 7-hydroxylation (P450 2A13 [2]; [10]): did not change the inhibition potencies; coumarin 7-hydroxylation, % of control (P450 2A13 [2]; with preincubation 15 min with NADPH, 1.0 µM coumarin, BSC 1.2 µM, m-XSC 0.22 µM): 54 % of control; coumarin 7-hydroxylation, % of control (P450 2A13 [2]; without preincubation, 1.0 µM coumarin, BSC 1.2 µM, m-XSC 0.22 µM): 56 % of control; coumarin 7-hydroxylation (P450 2A13 [2]; without preincubation, 1.0 µM coumarin, BSC 1.2 µM, m-XSC 0.22 µM, control 1.04): 0.59 nmol/min/nmol P450; type of binding spectra (P450 1B1 [4]; difference spectra): Reverse Type I; effect of preincubation on inhibition potency of coumarin 7-hydroxylation (P450 2A6 [7]; [10]): did not change the inhibition potencies; coumarin 7-hydroxylation, % of control (P450 2A6 [7]; with preincubation 15 min with NADPH, 1.0 µM coumarin, BSC 4.3 µM, m-XSC 0.68 µM): 48 % of control; coumarin 7-hydroxylation, % of control (P450 2A6 [7]; without preincubation, 1.0 µM coumarin, BSC 4.3 µM, m-XSC 0.68 µM): 48 % of control; coumarin 7-hydroxylation (P450 2A6 [7]; without preincubation, 1.0 µM coumarin, BSC 4.3 µM, m-XSC 0.68 µM, control 3.26): 1.56 nmol/min/nmol P450; ΔAmax/Ks (P450 2A13 [9]; as printed in text without ×10^−3): 0.40
